Results on 10 compounds are retold here after patent publication US20210130346A1, “Bromodomain Inhibitors” (AbbVie Inc., priority 2017, published 2021).

The target in the assay is BRD4 (BDI_K57-E168) (Homo sapiens, UniProt O60885). Put plainly: TR-FRET bromodomain binding assay, BRD4 first bromodomain (BDI). Particulars: mean Ki; 12 nM His tagged BRD4 (BDI_K57-E168), 100 nM Alexa647 probe; Ki calculated from IC50, probe Kd and probe concentration. How it is done: A time-resolved fluorescence resonance energy transfer (TR-FRET) assay was used to determine the affinities of compounds of the Examples listed in Table 1 for each bromodomain of BRD4. […] An Alexa647-labeled BET-inhibitor was used as the fluorescent probe in the assay.
Compound dilution series were prepared in DMSO via an approximately 3-fold serial dilution. Compound dilutions were added directly into white, low-volume assay plates (Perkin Elmer Proxiplate 384 Plus# 6008280) using a Labcyte Echo in conjunction with Labcyte Access and Thermo Multidrop CombinL robotics. Compounds were then suspended in eight microliters (μL) of assay buffer (20 mM Sodium Phosphate, pH 6.0, 50 mM NaCl, 1 mM Ethylenediaminetetraacetic acid disodium salt dihydrate, 0.01% Triton X-100, 1 mM DL-Dithiothreitol) containing His-tagged bromodomain, Europium-conjugated anti-His antibody (Invitrogen PV5596) and Alexa-647-conjugated probe.
After a one-hour equilibration at room temperature, TR-FRET ratios were determined using an Envision multilabel plate reader (Ex 340, Em 495/520).
TR-FRET data were normalized to the means of 24 no-compound controls (“high”) and 8 controls containing 1 μM un-labeled probe (“low”). Percent inhibition was plotted as a function of compound concentration and the data were fit with the 4 parameter logistic equation to obtain IC50s. Inhibition constants (Ki) were calculated from the IC50s, probe Kd and probe concentration.

One may read the Ki as the dissociation constant of the complex between target and ligand, obtained from inhibition or displacement. In the case of `Cn1cc([C@@H]2C[C@@]23C(=O)N(C2CC2)c2ccccc23)c2cc(C(=O)NC3CC3)[nH]c2c1=O` (racemic) [Example 26, rac-N-cyclopropyl-4-[(1R,2S)-1′-cyclopropyl-2′-oxo-1′,2′-dihydrospiro[cyclopropane-1,3′-indol]-2-yl]-6-methyl-7-oxo-6,7-dihydro-1H-pyrrolo[2,3-c]pyridine-2-carboxamide], the Ki is 9.22 µM.
The value for `CN1C(=O)[C@@]2(C[C@H]2c2cn(C)c(=O)c3[nH]c(C(=O)NC4CC4)cc23)c2ccccc21` (racemic) [Example 2, rac-N-cyclopropyl-6-methyl-4-[(1R,2S)-1′-methyl-2′-oxo-1′,2′-dihydrospiro[cyclopropane-1,3′-indol]-2-yl]-7-oxo-6,7-dihydro-1H-pyrrolo[2,3-c]pyridine-2-carboxamide] was 5.42 µM; that for `CN1C(=O)[C@@]2(C[C@H]2c2cn(C)c(=O)c3[nH]c(C(=O)NC4CC4)cc23)c2cc(F)ccc21` (racemic) [Example 16, rac-N-cyclopropyl-4-[(1R,2S)-5′-fluoro-1′-methyl-2′-oxo-1′,2′-dihydrospiro[cyclopropane-1,3′-indol]-2-yl]-6-methyl-7-oxo-6,7-dihydro-1H-pyrrolo[2,3-c]pyridine-2-carboxamide] was 9.95 µM.
With `Cc1cc(-c2cc3c([C@H]4C[C@@]45C(=O)N(C)c4ccccc45)cn(C)c(=O)c3[nH]2)on1` (racemic) [Example 40, rac-(1R,2R)-1′-methyl-2-[6-methyl-2-(3-methyl-1,2-oxazol-5-yl)-7-oxo-6,7-dihydro-1H-pyrrolo[2,3-c]pyridin-4-yl]spiro[cyclopropane-1,3′-indol]-2′(1H)-one] the figure was greater than 13 µM; with `CN1C(=O)[C@@]2(C[C@H]2c2cn(C)c(=O)c3[nH]c(-c4ccncc4)cc23)c2ccccc21` (racemic) [Example 50, rac-(1R,2S)-1′-methyl-2-[6-methyl-7-oxo-2-(pyridin-4-yl)-6,7-dihydro-1H-pyrrolo[2,3-c]pyridin-4-yl]spiro[cyclopropane-1,3′-indol]-2′(1H)-one], 1.28 µM; with `CN1C(=O)[C@@]2(C[C@H]2c2cn(C)c(=O)c3[nH]c(C(=O)NC4CC4)cc23)c2ccccc21` [Example 4, N-cyclopropyl-6-methyl-4-[(1R,2S)-1′-methyl-2′-oxo-1′,2′-dihydrospiro[cyclopropane-1,3′-indol]-2-yl]-7-oxo-6,7-dihydro-1H-pyrrolo[2,3-c]pyridine-2-carboxamide], greater than 13 µM.
The value for `CN1C(=O)[C@@]2(C[C@H]2c2cn(C)c(=O)c3[nH]c(C(=O)NC4CC(F)(F)C4)cc23)c2ccccc21` (racemic) [Example 5, rac-N-(3,3-difluorocyclobutyl)-6-methyl-4-[(1R,2S)-1′-methyl-2′-oxo-1′,2′-dihydrospiro[cyclopropane-1,3′-indol]-2-yl]-7-oxo-6,7-dihydro-1H-pyrrolo[2,3-c]pyridine-2-carboxamide] was 5.45 µM; that for `CN1C(=O)[C@@]2(C[C@H]2c2cn(C)c(=O)c3[nH]c(-c4cncnc4)cc23)c2ccccc21` (racemic) [Example 54, rac-(1R,2S)-1′-methyl-2-[6-methyl-7-oxo-2-(pyrimidin-5-yl)-6,7-dihydro-1H-pyrrolo[2,3-c]pyridin-4-yl]spiro[cyclopropane-1,3′-indol]-2′(1H)-one] was 1.08 µM; that for `CN1C(=O)[C@@]2(C[C@H]2c2cn(C)c(=O)c3[nH]c(-c4ccnc(C(F)(F)F)c4)cc23)c2ccccc21` [Example 53, (1R,2S)-1′-methyl-2-{6-methyl-7-oxo-2-[2-(trifluoromethyl)pyridin-4-yl]-6,7-dihydro-1H-pyrrolo[2,3-c]pyridin-4-yl}spiro[cyclopropane-1,3′-indol]-2′(1H)-one] was 2.82 µM.
`CN1C(=O)[C@]2(C[C@@H]2c2cn(C)c(=O)c3[nH]c(C(=O)O)cc23)c2ccccc21` (single isomer, unassigned) [Example 6]: the Ki was greater than 13 µM.
